The record followed here is ChEMBL document CHEMBL1201862, “PubChem BioAssay data set” (2004).

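How tested: cells in 96-well plates exposed to compound for 48 hours at five concentrations. GI50 is the concentration that inhibits growth by half.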 Active and inactive are the calls of the source. Rule as the data show it: active = GI50 up to about 1.1 µM and inactive = higher.

Among the test systems are RXF 393; IGROV-1; RPMI-8226; CCRF-CEM; OVCAR-5; 786-0; SR; OVCAR-4; LOX IMVI; Malme-3M; UACC-257; OVCAR-3; SK-OV-3; HOP-62; MOLT-4; SF-295; OVCAR-8; NCI-H522; UACC-62; TK-10.
What all share (assay): DTP human tumour cell line panel, 48 h

For `O=C1[C@@H]2[C@@H](CN3CN(c4ccccc4)N=C(c4ccccc4)[C@@]23c2ccccc2)C(=O)N1c1ccccc1`, the GI50 in the assay on RXF 393 was 2.95 µM (inactive); in the assay with IGROV-1, 13.8 µM (inactive); with RPMI-8226, 1.61 µM (inactive); in the assay with CCRF-CEM, 1.45 µM (inactive); in the assay on OVCAR-5, 4.7 µM (inactive); in the assay on 786-0, 1.88 µM (inactive). Besides, the GI50 with SR is 2.61 µM (inactive); in the assay with OVCAR-4 it was 2.61 µM (inactive); in the assay on LOX IMVI it was 1.68 µM (inactive); with Malme-3M it was 1.82 µM (inactive); in the assay on UACC-257 it was 12 µM (inactive); with OVCAR-3 it was 7.73 µM (inactive). Besides, the GI50 was 14 µM (inactive) in the assay on SK-OV-3; 14 µM (inactive) with HOP-62; 2.84 µM (inactive) with MOLT-4; 15.1 µM (inactive) in the assay on SF-295; 5.85 µM (inactive) in the assay on OVCAR-8; 0.547 µM (active) in the assay with NCI-H522. In addition, the GI50 was 5.98 µM (inactive) in the assay with UACC-62 and 1.48 µM (inactive) in the assay on TK-10.

On to `CC(SC1=CC(=O)c2c(O)ccc(O)c2C1=O)C(=O)O` (stereo not given), for which the GI50 in the assay with RXF 393 is > 48.4 µM (inactive); in the assay on IGROV-1, > 44.9 µM (inactive); in the assay on RPMI-8226, > 52.8 µM (inactive); with CCRF-CEM, 3.08 µM (inactive); in the assay on OVCAR-5, > 100 µM (inactive); in the assay on 786-0, 23.9 µM (inactive). Also, the GI50 was > 52.8 µM (inactive) in the assay on SR; 17 µM (inactive) in the assay on OVCAR-4; > 41.2 µM (inactive) with LOX IMVI; > 44.5 µM (inactive) in the assay on Malme-3M; 35.5 µM (inactive) in the assay on UACC-257; 21.4 µM (inactive) in the assay on OVCAR-3. Further, the GI50 is > 100 µM (inactive) in the assay with SK-OV-3; > 100 µM (inactive) with HOP-62; 7.48 µM (inactive) with MOLT-4; > 100 µM (inactive) in the assay on SF-295; 23.5 µM (inactive) with OVCAR-8; 1.51 µM (inactive) with NCI-H522. The GI50 was 17.5 µM (inactive) with UACC-62 and > 51.5 µM (inactive) in the assay with TK-10.

For the compound `COc1ccc2cc(CN3CCC(C4CCN(Cc5ccc6cc(OC)ccc6c5)CC4)CC3)ccc2c1`, the GI50 in the assay on RXF 393 is 5.16 µM (inactive); with IGROV-1 it was 8.77 µM (inactive); in the assay on RPMI-8226 it was 1.52 µM (inactive); with CCRF-CEM, 2.16 µM (inactive); in the assay on OVCAR-5, 21.8 µM (inactive); in the assay with 786-0 it was 2.06 µM (inactive). Besides, the GI50 in the assay with SR was 1.24 µM (inactive); in the assay with OVCAR-4, 4.42 µM (inactive); in the assay with LOX IMVI, 2.14 µM (inactive); in the assay on Malme-3M, 2.17 µM (inactive); in the assay with UACC-257 it was 2.09 µM (inactive); in the assay on OVCAR-3, 3.1 µM (inactive). The GI50 with SK-OV-3 is 26.3 µM (inactive); in the assay on HOP-62 it was 6.43 µM (inactive); in the assay with MOLT-4, 2.2 µM (inactive); in the assay with SF-295, 2.99 µM (inactive); with OVCAR-8, 5.15 µM (inactive); in the assay with NCI-H522, 2.3 µM (inactive). Moreover, the GI50 in the assay on UACC-62 was 1.97 µM (inactive); in the assay on TK-10, 3.25 µM (inactive).

As to `CCCc1[nH]c2ccccc2c1-c1c(CCC)[nH]c2ccccc12`, the GI50 in the assay on RXF 393 is 20 µM (inactive); in the assay with IGROV-1, 12 µM (inactive); with RPMI-8226, 19.7 µM (inactive); with CCRF-CEM, 8.26 µM (inactive); with OVCAR-5 it was 16.9 µM (inactive); in the assay with 786-0 it was 15.5 µM (inactive). The GI50 is 19 µM (inactive) with SR; 21.5 µM (inactive) in the assay with OVCAR-4; 4.35 µM (inactive) in the assay with LOX IMVI; 16 µM (inactive) in the assay on Malme-3M; 18.1 µM (inactive) in the assay with UACC-257; 8.2 µM (inactive) in the assay with OVCAR-3. The GI50 in the assay on SK-OV-3 is 24.1 µM (inactive); in the assay on HOP-62, 16.9 µM (inactive); with MOLT-4, 30.1 µM (inactive); in the assay with SF-295, 15.7 µM (inactive); in the assay on OVCAR-8, 3.35 µM (inactive); in the assay on NCI-H522 it was 17.1 µM (inactive). Also, the values for the GI50 with UACC-62 and in the assay with TK-10 were 13.3 µM (inactive) and 21.6 µM (inactive), respectively.

On to `Cc1cc(O)nc(NNC(C#N)c2ccc(O)cc2)n1` (stereo not given), for which the GI50 in the assay with RXF 393, in the assay with IGROV-1, with RPMI-8226, in the assay with CCRF-CEM, with OVCAR-5 and in the assay on 786-0 was > 100 µM (inactive) throughout. Moreover, the GI50 with SR, in the assay with OVCAR-4, in the assay on LOX IMVI, with Malme-3M, in the assay on UACC-257 and with OVCAR-3 was > 100 µM (inactive) each time. Further, the GI50 in the assay on SK-OV-3, in the assay on HOP-62, in the assay on MOLT-4, with SF-295, in the assay with OVCAR-8 and with NCI-H522 was > 100 µM (inactive) in each case. For the same compound, the GI50 in the assay with UACC-62 and in the assay with TK-10 was > 100 µM (inactive) each time.

`COc1ccc2c(c1)c(=O)c1ccccc1n2/C=C/C(=O)O`: the GI50 in the assay with RXF 393 was > 79.4 µM (inactive); in the assay with IGROV-1, > 100 µM (inactive); in the assay with RPMI-8226, > 100 µM (inactive); with CCRF-CEM it was > 48.4 µM (inactive); in the assay on OVCAR-5, > 100 µM (inactive); in the assay on 786-0, > 100 µM (inactive). Further, the GI50 in the assay with SR was > 41.7 µM (inactive); in the assay on OVCAR-4 it was > 100 µM (inactive); with LOX IMVI it was > 46.9 µM (inactive); in the assay on Malme-3M, > 100 µM (inactive); in the assay on UACC-257, > 100 µM (inactive); with OVCAR-3, > 100 µM (inactive). Moreover, the GI50 with SK-OV-3, in the assay on HOP-62, with MOLT-4, with SF-295, in the assay with OVCAR-8 and with NCI-H522 was > 100 µM (inactive) throughout. Moreover, the GI50 with UACC-62 and in the assay with TK-10 was > 100 µM (inactive) in each case.
